For 1 molecule, solubility results are on record in US20180355390A1, “Method to produce L-methionine by a fermentative production” (Evonik Degussa GmbH, priority 2016, published 2018).

Converted amounts (≈) assume the structure as drawn.

Data set [1] can be described thus: physchem. The protocol: The methionine solubility at 35° C. is approximately 70 g/L. If the solution is concentrated to approximately 250 g/L, under a vacuum ensuring a temperature of 35° C., the solid methionine recovery yield is >70%. Under these conditions, and by virtue of the removal of the soluble impurities, the solid methionine crystallizes in the form of spongy spheres which are easy to separate from the mother liquors.
The fermentation supernatant issued from step ii) was concentrated to approximately 250 g·L^−1 and ethanol has been added at different proportions 0%, 30% and 70% (corresponding to the ratio solvent/(methionine containing fraction+solvent) in weight). The theoretical yield of recovery has been determined in function of ethanol content.

Data set [2] can be described thus: physchem. Particulars: Residual solubility L-Methionine. The protocol: The amount of product in the fermentation medium or in the different downstream process fluxes such as supernatant, permeate or mother liquors of crystallization can be determined using a number of methods known in the art, for example, high performance liquid chromatography (HPLC) or gas chromatography (GC). For example the quantity of methionine obtained in the medium is measured by HPLC after OPA/FMOC derivatization using L-methionine (Fluka, Ref 64319) as a standard.
Different solvents were assayed on the fermentation concentrated supernatant issued from step ii) with the same ratio of 70% (solvent/(methionine containing fraction+solvent), in weight).

A word on the solubility: it is the dissolved amount per volume that the medium holds. Regarding `CSCC[C@H](N)C(=O)O` [L-methionine], the solubility in data set [1] (35 °C) was around 70 mg/mL (≈ 469 mM); in data set [1] (37 °C), around 70 mg/mL (≈ 469 mM); in data set [2] (concentrated fermentation supernatant with added solvent, 4 °C, aqueous with cosolvent or surfactant or cyclodextrin, Ethanol, ratio 70% by weight), 4000 to 5000 µg/mL; in data set [2] (concentrated fermentation supernatant with added solvent, 4 °C, aqueous with cosolvent or surfactant or cyclodextrin, Isopropanol, ratio 70% by weight), 4000 to 5000 µg/mL; in data set [2] (concentrated fermentation supernatant with added solvent, 4 °C, aqueous with cosolvent or surfactant or cyclodextrin, Methanol, ratio 70% by weight), 5000 to 6000 µg/mL; in data set [2] (concentrated fermentation supernatant with added solvent, aqueous with cosolvent or surfactant or cyclodextrin, 2-Butanone, ratio 70% by weight, room temperature), above 15000 µg/mL. For the same molecule, the solubility is 5500 to 6500 µg/mL in data set [2] (concentrated fermentation supernatant with added solvent, aqueous with cosolvent or surfactant or cyclodextrin, Acetonitrile, ratio 70% by weight, room temperature); 5000 to 6000 µg/mL in data set [2] (concentrated fermentation supernatant with added solvent, aqueous with cosolvent or surfactant or cyclodextrin, Ethanol, ratio 70% by weight, room temperature); 5000 to 6000 µg/mL in data set [2] (concentrated fermentation supernatant with added solvent, aqueous with cosolvent or surfactant or cyclodextrin, Isopropanol, ratio 70% by weight, room temperature); 7000 to 8000 µg/mL in data set [2] (concentrated fermentation supernatant with added solvent, aqueous with cosolvent or surfactant or cyclodextrin, Methanol, ratio 70% by weight, room temperature); 65000 µg/mL (≈ 436 mM) in data set [2] (concentrated fermentation supernatant, plasma or biological fluid, no solvent (Reference), room temperature).
